Experimental findings from patent US7727530B2, “Anti-cancer composition comprising proline or its derivatives and an anti-tumour antibody” (priority 2004, dated 2010) are described below.

What all share (format): cell-based
The test system of assay [1] is Colo205 colon cancer cells. The assay can be described thus: MTT proliferation (chemosensitivity) assay, Colo205.
Another assay concerns SW620 colon cancer cells. Nature of the assay: MTT proliferation (chemosensitivity) assay, SW620. The protocol:
(§1) MTT proliferation tests were performed as described. The proliferation control of both the untreated cells and the CHP pre-treated cells is set to 100%.
(§2) Unless otherwise indicated, all cell lines were obtained from the American Type Culture Collection (ATCC, Rockville, Md.) and grown to confluent monolayers in RPMI-1640 bicarbonate medium (Seromed, Berlin, Germany) in a humidified incubator (5% CO2, 37° C.). Cells were checked for mycoplasma contamination. The medium was supplemented with 10% heat-inactivated foetal bovine serum (Seromed) and 4 mM glutamine. The cells were subcultured by trypsination (0.03% trypsin containing 0.02% EDTA, three times a week). Cells numbers were counted using a TOA Sysmex microcellcounter (TOA, Tokyo, Japan).
(§3) 10^4 cells/well were distributed into 96-well microtitre plates (100 μl medium) and the compounds to be tested were added in another 100 μl volume. All compounds were diluted in triplicate or in most cases in quadruplicate. Plates were incubated under tissue culture conditions for 4 days, except those for tests investigating the relationship between application time and response, and cell viability was measured using a modified MTT assay (formazane dye formation from tetrazolium salts by mitochondrial reduction; EZ4U, Biomedica, Vienna, Austria), assessing mitochondrial activity and thereby cell viability/cell numbers. In brief, the supplied substrate was diluted in an activator solution and 20 μl of the mixture added per well for 2 hrs. The optical density was measured at 450 nm using an empty well as reference in a microplate reader (Eurogenetics, Brussels, Belgium). For each cell line, 8 wells were used to measure the MTT signal of the medium control without test substances and the proliferation in the test wells was calculated in relation to these control values set to 100%.
SW620chp4 and A431chp4 cells represent cells pre-treated with 400 μg/ml CHP for 5 days under tissue culture conditions.

Assay [2] concerns A431 epidermoid carcinoma. Nature of the assay: MTT proliferation (chemosensitivity) assay, A431. Conditions: A431 EGFR-overexpressing cell line. How it is done: as §1, §2
(§4) 10^4 cells/well were distributed into 96-well microtitre plates (100 μl medium) and the compounds to be tested were added in another 100 μl volume. All compounds were diluted in triplicate or in most cases in quadruplicate. Plates were incubated under tissue culture conditions for 4 days, except those for tests investigating the relationship between application time and response, and cell viability was measured using a modified MTT assay (formazane dye formation from tetrazolium salts by mitochondrial reduction; EZ4U, Biomedica, Vienna, Austria), assessing mitochondrial activity and thereby cell viability/cell numbers. […]

A further assay relates to HT29 colon cancer cells. The assay can be described thus: MTT proliferation (chemosensitivity) assay, HT29. To be noted: high concentrations of Cetuximab. How it is done: as §1, §2, §4
The subject of the next assay is WI38 normal fibroblasts. The assay can be described thus: MTT proliferation (chemosensitivity) assay, WI38. To be noted: W138. How it is done: as §1, §2, §4
A further assay deals with DLD1 colon cancer cells. The assay can be described thus: MTT proliferation (chemosensitivity) assay, DLD1. Conditions: high concentrations of Cetuximab. How it is done: as §1, §2, §4
The test system of assay [3] is MIAPaCa2 pancreatic cancer cell line. The assay can be described thus: MTT proliferation (chemosensitivity) assay, MIAPaCa2. The protocol:
as §1, §2
as §3, with “100%. Test results were recorded between 0.3 and 1.5 optical densities for slowly and rapidly proliferating cells respectively.” for “100%.”
Experiments using pre-incubation with CHP were performed using more cell lines, namely BxPC3 and MIAPaCa2 pancreatic cancer cell lines. […]

Assay [4] relates to colo250 colon cancer cell lines. Nature of the assay: CHP with analytical EGFR-antibody, inhibition of proliferation. To be noted: read-out: Inhibition of the control in %. The protocol: as §1, §2, §4
The subject of the next assay is EGFR. Nature of the assay: EGFR expression of A431 cells after CHP pre-incubation. Conditions: A431 cells pre-incubated with CHP.
The mark [5] stands for this setting: Homo sapiens, SW-620, read-out: proliferation activity (% of control).
The mark [6] stands for this setting: Homo sapiens, read-out: proliferation activity (% of control).
Where [7] appears, read: Homo sapiens, COLO 205, read-out: proliferation activity (% of control).

`CCOC(=O)[C@@H]1CC(O)CN1C` (stereo partly shown) [A1.21, 4-hydroxy-1-methyl-proline ethyl ester]: the “proliferation activity (% of control)” value in assay [1] (Colo 205 cells pre-incubated with the derivative 50 μg/ml for 5 days, then Cetuximab, Cetuximab concentrations not given) amounted to 94.5 ± 1.7%.
Turning to `O=C(O)[C@@H]1C[C@H](O)CN1` [CHP, Cis-4-hydroxy-L-proline], the activity at 12.5 µg/mL in the assay with SW620 colon cancer cells (setting [5]) was determined as 98.7 ± 3%; in assay [1] (setting [7]) it was 92.2 ± 1.4%. For the same molecule, the activity at 25 µg/mL came out at 92.3 ± 0.9% with SW620 colon cancer cells (setting [5]) and 94.4 ± 6.2% in assay [1] (setting [7]). The activity at 50 µg/mL amounted to 91.9 ± 4.1% in the assay with SW620 colon cancer cells (setting [5]) and 84.2 ± 2.1% in assay [1] (setting [7]). The activity at 200 µg/mL in the assay with SW620 colon cancer cells (setting [5]) worked out at 69.9 ± 2.6%; in [1] (setting [7]) it was 15.7 ± 1%. For the same molecule, the activity at 400 µg/mL came out at 51.3 ± 3.7% in the assay with SW620 colon cancer cells (setting [5]) and 9.9 ± 0.4% in [1] (setting [7]). The activity at 100 µg/mL came to 85.2 ± 0.7% with SW620 colon cancer cells (setting [6]) and 45.5 ± 3.2% in [1] (setting [6]). Moreover, the “interaction with Cetuximab, direct combination” value in the assay with SW620 colon cancer cells (SW620 cells, low concentrations of CHP (6.3-50 μg/ml), Cetuximab 40 μg/ml) is on record as “antagonistic”; in assay [1] (C205, CHP 400 μg/ml, at 5 and […] (printed as concentrations of CHP)), “antagonistic”; in [1] (C205, CHP 400 μg/ml, other concentrations), “no significant interaction”; in assay [1] (Colo205 cells, higher concentrations of CHP (50, 200 and 400 μg/ml), Cetuximab 40 μg/ml), “antagonistic”. In addition, the “interaction of CHP pre-incubation with Cetuximab” value in assay [2] is recorded as “antagonistic interaction”. In addition, the “interaction Avastatin-CHP pre-incubation” value in [1] (Colo205, high concentrations of Avastatin) was “Slightly synergistic effects”; in assay [3] (high concentrations of Avastatin), “Slightly synergistic effects”. Moreover, the “interaction with Cetuximab, sequential combination (CHP pre-treatment)” value in the assay with HT29 colon cancer cells, with WI38 normal fibroblasts and in the assay on DLD1 colon cancer cells was “antagonistic effects” in each case. Further, in [3], the “interaction CHP-Cetuximab, pre-incubation with CHP 200 μg/ml” value was “antagonistic interaction”. Besides, the “interaction with Rituximab, CHP pre-treatment” value in [3] (400 μg/ml CHP for 5 days) is reported as “synergy”. Besides, the inhibition – broadly, the percentage by which the read-out fell short of the control – at 200 µg/mL in assay [4] (CHP 200 μg/ml alone) came out at 7.3 ± 8.1%. Further, the inhibition at 100 µg/mL in assay [4] (CHP100, CHP 100 μg/ml alone) stood at 2.9 ± 10.1%. Further, in the assay on EGFR, the “expression of EGFR” value is given as “reduced expression of EGFR”.
